According to patent US8476043B2, “Inhibitors for the soluble epoxide hydrolase” (The Regents of the University of California, priority 2004, dated 2013):
Where two headings read alike, the source gives them in different places.

Key:
Assay type in all cases: biochemical
mouse sEH = biological target: T1, mouse sEH (Mus musculus, UniProt P34914); assay: sEH inhibition, spectrometric assay with racemic 4-nitrophenyl-trans-2,3-epoxy-3-phenylpropyl carbonate as substrate
T1 construct: made in house
T1 sequence (P34914 1-554): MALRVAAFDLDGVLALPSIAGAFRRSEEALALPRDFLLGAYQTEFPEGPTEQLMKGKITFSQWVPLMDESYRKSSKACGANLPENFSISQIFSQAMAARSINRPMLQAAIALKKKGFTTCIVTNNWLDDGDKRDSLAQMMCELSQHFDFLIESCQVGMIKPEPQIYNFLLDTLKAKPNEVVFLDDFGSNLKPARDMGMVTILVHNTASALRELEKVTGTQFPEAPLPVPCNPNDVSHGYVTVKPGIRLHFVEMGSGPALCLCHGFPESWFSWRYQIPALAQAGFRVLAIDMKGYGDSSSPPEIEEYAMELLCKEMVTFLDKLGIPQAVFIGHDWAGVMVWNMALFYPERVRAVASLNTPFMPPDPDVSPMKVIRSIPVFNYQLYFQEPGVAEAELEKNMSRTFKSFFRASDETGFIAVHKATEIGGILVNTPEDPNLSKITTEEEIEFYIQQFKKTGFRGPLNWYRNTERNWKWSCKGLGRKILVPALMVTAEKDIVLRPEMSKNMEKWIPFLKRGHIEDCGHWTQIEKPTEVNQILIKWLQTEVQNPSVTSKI
Protocol: (§1) Recombinant mouse sEH and human sEH were produced in a baculovirus expression system and purified by affinity chromatography. […] Protein concentration was quantified by using the Pierce BCA assay using Fraction V bovine serum albumin as the calibrating standard.
(§2) IC50 values were determined in one of two method. One method uses racemic 4-nitrophenyl-trans-2,3-epoxy-3-phenylpropyl carbonate as substrate. […] Assays were performed in triplicate. […] The curve was generated from at least three separate runs, each in triplicate, to obtain the standard deviation (SD) given in Table 1 thru Table 4.

human sEH [1] = biological target: T2, human sEH (Homo sapiens, UniProt P34913); assay: as above; settings: read-out: IC50 Human sEH
T2 construct: made in house
T2 sequence (P34913 1-555): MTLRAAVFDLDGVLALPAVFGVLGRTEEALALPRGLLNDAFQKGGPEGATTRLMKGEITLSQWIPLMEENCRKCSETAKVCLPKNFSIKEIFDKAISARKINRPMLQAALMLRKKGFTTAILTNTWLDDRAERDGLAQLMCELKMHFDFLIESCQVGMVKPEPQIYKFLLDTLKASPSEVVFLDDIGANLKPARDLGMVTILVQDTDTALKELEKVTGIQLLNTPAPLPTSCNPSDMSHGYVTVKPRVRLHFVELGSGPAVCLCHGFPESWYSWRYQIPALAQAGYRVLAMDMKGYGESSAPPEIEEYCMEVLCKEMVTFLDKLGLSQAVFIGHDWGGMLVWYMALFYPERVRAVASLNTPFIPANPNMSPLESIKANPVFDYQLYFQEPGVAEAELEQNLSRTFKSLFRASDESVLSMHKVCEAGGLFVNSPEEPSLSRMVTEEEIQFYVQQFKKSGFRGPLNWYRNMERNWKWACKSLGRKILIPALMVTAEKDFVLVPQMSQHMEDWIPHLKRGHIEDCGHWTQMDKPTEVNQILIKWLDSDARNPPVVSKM
Protocol: as §1, §2

human sEH [2] = biological target: T2, human sEH; assay: sEH inhibition, fluorescent assay with cyano(6-methoxy-naphthalen-2-yl)methyl trans-[(3-phenyloxiran-2-yl)methyl]carbonate as substrate; settings: Table 18b; fluorescent assay with cyano(6-methoxy-naphthalen-2-yl)methyl trans-[(3-phenyloxiran-2-yl)methyl]carbonate as substrate; mean ± SD; read-out: IC50
Protocol: as §1
Enzyme activity was measured by monitoring the appearance of 6-methoxy-2-naphthaldehyde. Assays were performed in triplicate. […] IC50 values were determined by regression of at least five datum points, with a minimum of two datum points in the linear region of the curve on either side of the IC50 values. The curve was generated from at least three separate runs, each in triplicate.

[3] = Table 10, read-out: IC50 Mouse sEH
[4] = Table 3, mean ± SD, read-out: IC50 Mouse sEH
[5] = Table 18a, read-out: IC50 Mouse sEH

## CCOC(=O)c1ccc(C(C#N)OC(=O)C2CCCC(NC(=O)NC34CC5CC(CC(C5)C3)C4)C2)cc1 (stereo not drawn) [1009 trans]
Mouse sEH; [3]
  IC50: 50 ± 10 nM

## CCOC(=O)c1ccc(C(C#N)OC(=O)C2CCCC(NC(=O)NC34CC5CC(CC(C5)C3)C4)C2)cc1 (stereo not drawn) [1014- cis]
Mouse sEH; [3]
  IC50: 50 ± 10 nM

## O=C(CCCNC(=O)NC1CCCCC1)NC(Cc1ccc(O)cc1)C(=O)O (stereo not shown) [Compound 625-Tyr, 2-[4-(3-Cyclohexyl-ureido)-butyrylamino]-3-(4-hydroxy-phenyl)-propionic acid]
Mouse sEH
  inhibition potency on mouse sEH, in words: hundreds of nanomolar range

## CCCCCOC(=O)OCCNC(=O)Nc1cccc(Cl)c1 [Compound 760, 1-(3-chlorophenyl)-3-(2-pentoxycarbonyloxyethyl)urea]
Human sEH [1]; Table 3, mean ± SD
  IC50: 22000 ± 1000 nM
Mouse sEH; [4]
  IC50: 7600 ± 300 nM

## CCCCCCC(=O)OCCNC(=O)Nc1cccc(Cl)c1 [Compound 761, 1-(3-chlorophenyl)-3-(2-hexylcarbonyloxyethyl)urea]
Human sEH [1]; Table 3, mean ± SD
  IC50: 26000 ± 1000 nM
Mouse sEH; [4]
  IC50: 7700 ± 600 nM

## CCCCCNC(=O)OCCNC(=O)Nc1cccc(Cl)c1 [Compound 762, 1-(3-chlorophenyl)-3-(2-pentylaminocarbonyloxyethyl)urea]
Human sEH [1]; Table 3, mean ± SD
  IC50: 18000 ± 900 nM
Mouse sEH; [4]
  IC50: 5300 ± 100 nM

## COC(=O)CCCNC(=O)NC1CCCCC1 [Compound 774]
Mouse sEH; stated for both enzymes (mouse and human sEH)
  fold higher activity than the esters of acetic and propanoic acids (549 and 635): 8-100 fold

## CCOC(=O)CCCCCOC(=O)CCCNC(=O)NC12CC3CC(CC(C3)C1)C2 [Compound 821]
Mouse sEH; [5]
  IC50: 60 ± 10 nM

## CCOC(=O)CCCCCCNC(=O)CCCNC(=O)NC12CC3CC(CC(C3)C1)C2 [Compound 836]
Mouse sEH; [5]
  IC50: 50 ± 10 nM

## CCOC(=O)c1cccc(NC(=O)CCCNC(=O)NC23CC4CC(CC(C4)C2)C3)c1 [Compound 846]
Mouse sEH; [5]
  IC50: 40 ± 10 nM

## CCOC(=O)c1ccc(COC(=O)CCCNC(=O)NC23CC4CC(CC(C4)C2)C3)cc1 [Compound 849, 4-[4-(3-Adamantan-1-yl-ureido)butyryloxymethyl]benzoic Acid Ethyl Ester]
Mouse sEH
  IC50: 10 ± 10 nM

## CCOC(=O)/C=C/c1ccc(OC(=O)CCCNC(=O)NC23CC4CC(CC(C4)C2)C3)cc1 [Compound 851]
Mouse sEH
  IC50: 10 ± 10 nM

## CCOC(=O)CCCCC(C)OC(=O)CCCNC(=O)NC12CC3CC(CC(C3)C1)C2 (stereo not shown) [Compound 855]
Mouse sEH; [5]
  IC50: 10 ± 10 nM

## CN(C)c1cccc2c(S(=O)(=O)NCCOCCOCCCCCNC(=O)NC34CC5CC(CC(C5)C3)C4)cccc12 [Compound 976]
Human sEH [1]; Table 18a
  IC50: 100 ± 10 nM

## CN(C)c1cccc2c(S(=O)(=O)NCCCOCCCCCNC(=O)NC34CC5CC(CC(C5)C3)C4)cccc12 [Compound 986]
Human sEH [1]; Table 18a
  IC50: 290 ± 10 nM

## O=C(CCCCc1ccccc1)NC12CC3CC(CC(C3)C1)C2 [Compound 991]
Mouse sEH; [5]
  IC50: 60 ± 10 nM

## O=C(NCCCCCCCCCCCCn1ccnc1)NC12CC3CC(CC(C3)C1)C2 [Compound 997]
Human sEH [1]; Table 18a
  IC50: 63000 ± 10 nM

## CCOCCOCCOCCCCCNC(=O)NC12CC3CC(CC(O)(C3)C1)C2 [Compound 1010]
Mouse sEH; [5]
  IC50: 50 ± 10 nM

## O=C(NC1CCCC(C(=O)OC(c2ccccc2)c2ccccc2)C1)NC12CC3CC(CC(C3)C1)C2 (stereo not shown) [Compound 1437]
Human sEH [2]
  IC50: 10 ± 10 nM

## CCOCCOCCOc1ccc(C(OC(=O)CCCNC(=O)NC23CC4CC(CC(C4)C2)C3)c2ccccc2)cc1 (stereo not shown) [Compound 1438]
Human sEH [2]
  IC50: 10 ± 10 nM

## CCOCCOCC(OC(=O)CCCNC(=O)NC12CC3CC(CC(C3)C1)C2)c1ccccc1 (stereo not shown) [Compound 1439]
Human sEH [2]
  IC50: 10 ± 10 nM

## O=C(Nc1cccc(C(=O)Nc2ccc(N3CCOCC3)cc2)c1)NC12CC3CC(CC(C3)C1)C2 [Compound 1440]
Human sEH [2]
  IC50: 70 ± 10 nM

## CC(C)(Oc1ccc(NC(=O)NC23CC4CC(CC(C4)C2)C3)cc1)C(=O)OCc1ccccc1 [Compound 1441]
Human sEH [2]
  IC50: 10 ± 10 nM

## CC(C)(Oc1ccc(NC(=O)NC23CC4CC(CC(C4)C2)C3)cc1)C(=O)O [Compound 1442]
Human sEH [2]
  IC50: 150 ± 10 nM

## CCOC(=O)C(F)(F)Oc1ccc(NC(=O)NC23CC4CC(CC(C4)C2)C3)cc1 [Compound 1443]
Human sEH [2]
  IC50: 10 ± 10 nM

## O=C(Nc1ccc(OC(F)(F)C(=O)O)cc1)NC12CC3CC(CC(C3)C1)C2 [Compound 1444]
Human sEH [2]
  IC50: 10 ± 10 nM

## O=C(Nc1ccc(O)c(Cl)c1)NC12CC3CC(CC(C3)C1)C2 [Compound 1446]
Human sEH [2]
  IC50: 10 ± 10 nM

## O=C(Nc1ccc(OCCN2CCOCC2)c(Cl)c1)NC12CC3CC(CC(C3)C1)C2 [Compound 1447]
Human sEH [2]
  IC50: 10 ± 10 nM

## O=C(Nc1ccc(OCCN2CCOCC2)cc1Cl)NC12CC3CC(CC(C3)C1)C2 [Compound 1448]
Human sEH [2]
  IC50: 10 ± 10 nM

## O=C(NCCCCCCCCO)NC12CC3CC(CC(C3)C1)C2 [Compound 1449]
Human sEH [2]
  IC50: 10 ± 10 nM

## COCCCCCCCCNC(=O)NC12CC3CC(CC(C3)C1)C2 [Compound 1450]
Human sEH [2]
  IC50: 10 ± 10 nM
